Here are results for 1 compound from patent US9120795B2, “Crystalline form of a β-lactamase inhibitor” (Cubist Pharmaceuticals, Inc., priority 2013, dated 2015).

Assay [1] has as its system Eco isogenic, SHV-12. Nature of the assay: Synergy MIC (sMIC) assay. Format: cell-based, E. coli. The following applies: SHV-12, isogenic Eco; CXA-101 at 4 μg/mL. Here is the method:
The synergy MIC (sMIC) assay determines the concentration of the BLI required to potentiate the activity of a fixed concentration of a β-lactam antibiotic against β-lactamase producing bacterial strains. The experimental protocol was performed according to Clinical and Laboratory Standards Institute (CLSI) guidelines with modifications as described below (CLSI guidelines can be derived from the CLSI document M07-A9 published in January 2012: “Methods for Dilution Antimicrobial Susceptibility Tests for Bacteria That Grow Aerobically; Approved Standard-Ninth Edition”). The assay is set-up by serially diluting the BLI across 11 of the 12 wells in each row of a 96-well broth microdilution assay plate, adding the β-lactam at a fixed concentration to all wells in the assay plate, inoculating the assay plate with bacterial strains, and determining the lowest concentration of BLI required to inhibit overnight bacterial growth.
(§1) To prepare for MIC testing, frozen glycerol stocks of clinical isolates (Klebsiella pneumoniae, Eschericia coli, Enterobacter spp, Citrobacter spp, or Pseudomonas aeruginosa) were used to streak for isolated colonies on rich, non-selective, tryptic soy agar containing 5% sheep's blood (TSAB). Frozen glycerol stocks of laboratory engineered, isogenic E. coli strains, which contain cloned β-lactamase expressing plasmids were used to streak for isolated colonies on rich, selective LB agar supplemented with 25 μg/mL tetracycline to maintain the plasmid. All strains were incubated at 37° C. for 18-24 hrs.
On the day of testing, primary cultures were started by scraping off 5-10 colonies from the TSAB plates containing clinical strains or the tetracycline supplemented LB plates containing engineered strains. The clinical strain material was suspended in ˜5 mL of cation adjusted Mueller Hinton Broth (CAMHB) in 14 mL culture tubes. The engineered strain material was suspended in CAMHB (supplemented with tetracycline at 25 μg/mL) in 14 mL culture tubes. All strains were incubated at 37° C. with aeration (200 rpm) for ˜2 hrs until the OD600 was ≧0.1.
The two compound components of the assay were each prepared in CAMHB and added to the 96-well broth microdilution assay plates. 50 μL of the BLI was added to each well of the assay plate in 2-fold dilutions with final concentrations ranging from 128 to 0.13 μg/mL. 25 μL of the β-lactam was added to all wells in the broth microdilution plates at a final concentration of 4 μg/mL. Inoculum cultures were prepared by standardizing the primary cultures to OD600=0.1 and then adding 20 μL of the adjusted primary culture per 1 mL CAMHB for clinical strains or CAMHB (supplemented with tetracycline at 100 μg/mL) for isogenic strains, so that the final inoculum density was ˜10^5 colony forming units per milliliter. Diluted inoculum cultures were used to inoculate 25 μL per well in 96-well broth microdilution assay plates. […]
Plates were incubated for 18-20 hours at 37° C. with aeration (200 rpm). Following incubation, growth was confirmed visually placing plates over a viewing apparatus (stand with a mirror underneath) and then OD600 was measured using a SpectraMax 340PC384 plate reader (Molecular Devices, Sunnyvale, Calif.). Growth was defined as turbidity that could be detected with the naked eye or achieving minimum OD600 of 0.1. sMIC values were defined as the lowest concentration producing no visible turbidity. […]

Assay [2] relates to Eco.2845 (OXA-15, isogenic). Nature of the assay: Standard BLI potentiation MIC assay. Format: cell-based, Eschericia coli. The following applies: read-out: MIC of β-lactam with BLI. Here is the method:
(§2) The experimental protocol was performed according to Clinical and Laboratory Standards Institute (CLSI) guidelines with modifications as described below (CLSI guidelines can be derived from the CLSI document M07-A9 published in January 2012: “Methods for Dilution Antimicrobial Susceptibility Tests for Bacteria That Grow Aerobically; Approved Standard-Ninth Edition”).
as §1
(§3) On the day of testing, primary cultures were started by scraping off 5-10 colonies from the TSAB plates containing clinical strains or the tetracycline supplemented LB plates containing engineered strains. The clinical strain material was suspended in ˜5 mL of cation adjusted Mueller Hinton Broth (CAMHB) in 14 mL culture tubes. The engineered strain material was suspended in CAMHB (supplemented with 25 μg/mL tetracycline) in 14 mL culture tubes. All strains were incubated at 37° C. with aeration (200 rpm) for ˜2 hrs until the optical density at 600 nm (OD600) was ≧0.1.
(§4) The two compound components of the assay were each diluted in CAMHB and added to the 96-well broth microdilution assay plates. 50 μL of the β-lactam was added to each well of the assay plate in 2-fold dilutions with final concentrations ranging from 128 to 0.13 μg/mL. 25 μL of the BLI compound was added to all wells in the broth microdilution plates at a final concentration of 4 μg/mL. Inoculum cultures were prepared by standardizing the primary cultures to OD600=0.1 and then adding 20 μL of the adjusted primary culture per 1 mL CAMHB for clinical strains or CAMHB (supplemented with tetracycline at 100 μg/mL) for engineered strains, so that the final inoculum density was ˜10^5 colony forming units per milliliter. Diluted inoculum cultures were used to inoculate 25 μL per well in 96-well broth microdilution assay plates. The final volume of each well was 100 μL and contained a β-lactam at different concentrations, a BLlcompound at 4 μg/mL concentration, the bacterial culture at an OD600 of approximately 0.001 and when necessary tetracycline at 25 μg/mL.
(§5) Plates were incubated for 18-20 hours at 37° C. with aeration (200 rpm). Following incubation, growth was confirmed visually placing plates over a viewing apparatus (stand with a mirror underneath) and then OD600 was measured using a SpectraMax 340PC384 plate reader (Molecular Devices, Sunnyvale, Calif.). Growth was defined as turbidity that could be detected with the naked eye or achieving minimum OD600 of 0.1. MIC values were defined as the lowest concentration producing no visible turbidity.

Assay [3] concerns Eco.2711 (KPC, clinical). Kind of assay: Standard BLI potentiation MIC assay. Format: cell-based, Eschericia coli. The following applies: read-out: MIC of β-lactam with BLI. Here is the method:
as §2, §1, §3, §4, §5

For assay [4], the system named is Eco.2781 (KPC-2, TEM+, clinical). Nature of the assay: Standard BLI potentiation MIC assay. The following applies: read-out: MIC of β-lactam with BLI. Format: cell-based, Eschericia coli. Here is the method: as §2, §1, §3, §4, §5
The subject of assay [5] is Eco.2902 (Aba-ADC-33, isogenic). Nature of the assay: Standard BLI potentiation MIC assay. The assay is classed as cell-based, Eschericia coli. The following applies: read-out: MIC of β-lactam with BLI. The procedure: as §2, §1, §3, §4, §5
For assay [6], the system named is Eco.2843 (DHA-1, isogenic). Kind of assay: Standard BLI potentiation MIC assay. The assay is classed as cell-based, Eschericia coli. The following applies: read-out: MIC of β-lactam with BLI. The procedure:
as §2, §1, §3, §4, §5

Assay [7] relates to Eco.2840 (KPC-4, isogenic). Kind of assay: Standard BLI potentiation MIC assay. The assay is classed as cell-based, Eschericia coli. The following applies: read-out: MIC of β-lactam with BLI. The procedure:
as §2, §1, §3, §4, §5

Assay [8] has as its system Eco.2806 (KPC-2, isogenic). Nature of the assay: Standard BLI potentiation MIC assay. The following applies: read-out: MIC of β-lactam with BLI. The assay is classed as cell-based, Eschericia coli. Here is the method:
as §2, §1, §3, §4, §5

Consider `O=C1N2C[C@@H](CC[C@H]2c2nnco2)N1OS(=O)(=O)[O-].[Na+]` [Hydrate 1, sodium (2S,5R)-2-(1,3,4-oxadiazol-2-yl)-7-oxo-1,6-diazabicyclo[3.2.1]octan-6-yl sulfate], for which, in assay [1], the sMIC entry was “B (B = 1-2 μg/mL)”. The MIC – broadly, the least concentration at which growth counts as inhibited – in assay [2] was 1 to 2 µg/mL; in assay [3], 0.25 to 0.5 µg/mL; in assay [4], 0.25 to 0.5 µg/mL; in assay [5], 1 to 2 µg/mL; in assay [6], 0.25 to 0.5 µg/mL; in assay [7], 1 to 2 µg/mL. Moreover, the MIC in assay [8] is 0.25 to 0.5 µg/mL.
